# Measurements reported in US20240150755A1, “MODULATING REGULATORY T CELL FUNCTION IN AUTOIMMUNE DISEASE AND CANCER” (Salk Institute for Biological Studies, priority 2021, published 2024).
# Tested on: Treg cells
# Assay: In vitro Treg suppression assay
# Type: cell-based, mouse
# Details: sgRNA transduced Treg cells plus MIGR-Foxp3
# Text: Treg cells were transduced by retrovirus expressing sgRNA targeting gene of interest and cultured in X-VIVO® complete media supplemented with IL-2 (500 U/ml). Four days after transduction, transduced cells were […] a fluorescence-activated cell sorter (FACS). CD45.1+ naive CD4 T cells (CD4^+CD25^−CD44^loCD62^hi) were labeled with CellTrace™ Violet (Thermo Fisher Scientific #C34571) in different ratio in the presence of irradiated T cell depleted spleen cells as antigen-presenting cells (APC). Three days later, Treg suppression function was measured by the percentage of non-dividing cells within the CD45.1^+ effector T cell population. For dBRD9 treatment experiment, dBRD9 was first dissolved in DMSO (10 mM stock) and added into Treg:Teff:APC mixture at 2.5 μM. For Foxp3 overexpression rescue experiment, Treg cells were first transduced with sgNT or sgBrd9 at 24 hour post-activation, and then transduced with MIGR empty vector or MIGR-Foxp3 at 48 hour post-activation. Double transduced Treg cells were FACS sorted on day 4 based on NGFR+ and GFP+ markers and then mixed with CellTrace™ labeled effector T cells in the presence of APC. Treg suppression readout was measured after three days of co-culture.
substance,measurement,value
"sgBrd9: sgRNA targeting Brd9, ATTAACCGGTTTCTCCCGGG (SEQ ID NO: 12) (expressed or natural sequence)",Treg suppressor activity with ectopic expression of Foxp3,partially restored Treg suppressor activity to a level comparable to sgNT controls
